Experimental data from patent US20050100617A1, “Method for improving age-related physiological deficits and increasing longevity” (priority 2001, published 2005).

Test system: skeletal muscle (gastrocnemius) gene expression
Assay: Gene expression profiling in skeletal muscle, short-term (3 months) dietary intervention in young mice
Type: in vivo
Conditions: 3 months treatment
Procedure: For each target gene, the fold change is calculated as follows: [Expression obtained with the experimental diet] divided by [Expression obtained with control diet]. Consequently, fold changes of all target genes are equal to 1 (one) for the control diet. Thus, fold changes refers to the modulation of expression of a given target gene in muscle tissue after 3 months feeding with an experimental diet, for example, diets B, C, D, or F, when compared to the expression of the same gene in muscle tissue of the control group (diet A).
Dietary intervention was of 3 months, all animal groups were fed Ad libitum except for the group of caloric restricted mice which as fed 67% of the daily food consumed by the control Ad libitum group. Animal weight was measured once a week.
The effect of short and long nutritional intervention was investigated. The short-term dietary interventions with diet A, B, C, D and F was initiated in young mice and lasted for three months. In a similar way, long-term interventions were initiated at three months of age for the following diets A and B and D and lasted twenty-one months.
Male mice C57/B16 were obtained from Iffa credo (France) at 9 weeks of age. Upon arrival mice were housed by groups of 6 animals. After 3 weeks adaptation, mice (12 weeks old) were randomized 6 groups (A to F) of 12 mice each and housed individually. Dietary intervention was of 3 months; mice had free access to water and were submitted to 12 hours light and dark cycles.
The control diet (diet A) composed of 18% proteins (soy and whey), 11% fat (soybean oil), 59% carbohydrates (starch+sucrose) and 10% cellulose was supplemented with either a cocktail of antioxidants comprising vitamin C, vitamin E, grape seed extract and cysteine (diet C) and/or L-camitine (diet D and F respectively). For caloric restriction (diet B) fat, starch and sucrose were reduced to provide 67% of the daily calorie consumption of the Ad-lib control group while providing 100% for proteins, minerals and vitamins. These diets are as follows: • Diet A—Control: 18% proteins (soy and whey), 11% fat, 59% carbohydrates, 5% cellulose. • Diet B—Caloric restriction: 18% proteins (soy and whey), 7.7% fat, 32.5% carbohydrates, 5% cellulose • Diet C—Cocktail of antioxidants : Diet A+0.19% vit C, 0.03% vit E, 0.075% grape seed extract, 0.4% cysteine. • Diet D: Carnitine and Antioxidants: Diet A+0.3% L- camitine+cocktail of antioxidants of diet C. • Diet F: Carnitine: Diet A+0.3% L- carnitine
Mice were decapitated and dissected rapidly. Skeletal muscles (gastrocnemius) were immersed in RNAlatter (Ambion) and frozen at −80° C. until use. For RNA extraction, muscles were homogenized with ceramic beads (FastPrep, Q-Biogene) and the RNA extracted with Totally RNA kit (Ambion). The quality of the RNA was checked by Agilent technology. RNA pools from four mice each were created and hybridized to Affymetrix Murine U74Av2 high-density oligonucleotide microarrays.
The Global Error Assessment (GEA) methodology was used to select differentially expressed genes in the present invention. See Bioinformatics, Vol. 20, No. 16 (Oxford University Press 2004) pp. 2726-2737, the content of which is hereby incorporated by reference thereto. The goal was to select genes with statistically significant differential expression between treatments and ages of the mice of the study.

C[N+](C)(C)C[C@H](O)CC(=O)[O-] [Carnitine, L-carnitine]
Fold Changes 0610013E23Rik (RIKEN cDNA 0610013E23 gene): 0.6 fold | Fold Changes 2010012F05Rik (RIKEN cDNA 2010012F05 gene): 0.8 fold | Fold Changes 2210419D22Rik (RIKEN cDNA 2210419D22 gene): 0.8 fold | Fold Changes 2310016A09Rik (RIKEN cDNA 2310016A09 gene): 0.7 fold | Fold Changes 2310073E15Rik (RIKEN cDNA 2310073E15 gene): 1.2 fold | Fold Changes 2610034N03Rik (RIKEN cDNA 2610034N03 gene): 0.5 fold | Fold Changes 2700059D21Rik (RIKEN cDNA 2700059D21 gene): 0.5 fold | Fold Changes 3110038L01Rik (RIKEN cDNA 3110038L01 gene): 1.4 fold | Fold Changes 4732477C12Rik (RIKEN cDNA 4732477C12 gene): 1.2 fold | Fold Changes 5730454B08Rik (RIKEN cDNA 5730454B08 gene): 0.8 fold | Fold Changes 5730497N03Rik (RIKEN cDNA 5730497N03 gene): 0.2 fold | Fold Changes 6330407G11Rik (RIKEN cDNA 6330407G11 gene): 0.6 fold | Fold Changes 6720463E02Rik (RIKEN cDNA 6720463E02 gene): 1.3 fold | Fold Changes Actb (actin, beta, cytoplasmic): 1.4 fold | Fold Changes Akt1s1 (AKT1 substrate 1 (proline-rich)): 1.4 fold | Fold Changes Aldh2 (aldehyde dehydrogenase 2, mitochondrial): 1.7 fold | Fold Changes Anp32e (acidic (leucine-rich) nuclear phosphoprotein 32 family, member E): 0.6 fold | Fold Changes Apobec2 (apolipoprotein B editing complex 2): 0.5 fold | Fold Changes Arid1a (AT rich interactive domain 1A (Swi1 like)): 0.6 fold | Fold Changes Arpc2 (actin related protein 2/3 complex, subunit 2): 0.6 fold | Fold Changes Atp1b2 (ATPase, Na+/K+ transporting, beta 2 polypeptide): 4.1 fold | Fold Changes Atp13a (ATPase type 13A): 0.7 fold | Fold Changes Birc4 (baculoviral IAP repeat-containing 4): 5.9 fold | Fold Changes C4 (complement component 4 (within H-2S)): 0.6 fold | Fold Changes Camk2a (calcium/calmodulin-dependent protein kinase II alpha): 4.6 fold | Fold Changes Capza2 (capping protein (actin filament) muscle Z-line, alpha 2): 0.7 fold | Fold Changes Capzb (capping protein (actin filament) muscle Z-line, beta): 0.6 fold | Fold Changes Car4 (carbonic anhydrase 4): 2.3 fold | Fold Changes Cbfb (core binding factor beta): 0.7 fold | Fold Changes Ccl9 (chemokine (C-C motif) ligand 9): 0.5 fold | Fold Changes Cd97 (CD97 antigen): 5.4 fold | Fold Changes Cd164 (CD164 antigen): 0.8 fold | Fold Changes Cdh10 (cadherin 10): 0.4 fold | Fold Changes Cebpd (CCAAT/enhancer binding protein (C/EBP), delta): 0.5 fold | Fold Changes Copb2 (coatomer protein complex, subunit beta 2 (beta prime)): 0.7 fold | Fold Changes Cpd (carboxypeptidase D): 1.9 fold | Fold Changes D8Ertd69e (DNA segment, Chr 8, ERATO Doi 69, expressed): 1.2 fold | Fold Changes D19Ertd678e (DNA segment, Chr 19, ERATO Doi 678, expressed): 5.2 fold | Fold Changes Ddb1 (damage specific DNA binding protein 1): 0.7 fold | Fold Changes Deb1 (differentially expressed in B16F10 1): 0.8 fold | Fold Changes Dyrk1a (dual-specificity tyrosine-(Y)-phosphorylation regulated kinase 1a): 1.8 fold | Fold Changes E030006K04Rik (RIKEN cDNA E030006K04 gene): 2.9 fold | Fold Changes Eif2s3x (eukaryotic translation initiation factor 2, subunit 3, structural gene X-linked): 0.7 fold | Fold Changes Eif4ebp1 (eukaryotic translation initiation factor 4E binding protein 1): 0.6 fold | Fold Changes Eif4ebp2 (eukaryotic translation initiation factor 4E binding protein 2): 0.6 fold | Fold Changes Enpep (glutamyl aminopeptidase): 0.6 fold | Fold Changes Eps15 (epidermal growth factor receptor pathway substrate 15): 0.7 fold | Fold Changes Erv4 (endogenous retroviral sequence 4 (with leucine t-RNA primer)): 5.2 fold | Fold Changes Esr1 (estrogen receptor 1 (alpha)): 6.5 fold | Fold Changes Fcgr2b (Fc receptor, IgG, low affinity Ilb): 0.1 fold | Fold Changes G0s2 (G0/G1 switch gene 2): 1.5 fold | Fold Changes Galnt1 (UDP-N-acetyl-alpha-D-galactosamine:polypeptide N-acetylgalactosaminyltra): 0.5 fold | Fold Changes Gas5 (growth arrest specific 5): 0.6 fold | Fold Changes Gpr12 (G-protein coupled receptor 12): 0.7 fold | Fold Changes Gpx7 (glutathione peroxidase 7): 0.3 fold | Fold Changes Gstm5 (glutathione S-transferase, mu 5): 0.6 fold | Fold Changes Hbb-b1 (hemoglobin, beta adult major chain): 1.2 fold | Fold Changes Hdac2 (histone deacetylase 2): 0.8 fold | Fold Changes Hist2h3c2 (histone 2, H3c2): 1.5 fold | Fold Changes Hmgcl (3-hydroxy-3-methylglutaryl-Coenzyme A lyase): 0.5 fold | Fold Changes Hoxd8 (homeo box D8): 0.6 fold | Fold Changes Htr1a (5-hydroxytryptamine (serotonin) receptor 1A): 4.2 fold | Fold Changes Igfbp5 (insulin-like growth factor binding protein 5): 0.6 fold | Fold Changes Itgb1 (integrin beta 1 (fibronectin receptor beta)): 0.7 fold | Fold Changes Itpr1 (inositol 1,4,5-triphosphate receptor 1): 0.4 fold | Fold Changes Junb (Jun-B oncogene): 0.4 fold | Fold Changes Klf3 (Kruppel-like factor 3 (basic)): 5.9 fold | Fold Changes Klrb1c (killer cell lectin-like receptor subfamily B member 1C): 0.2 fold | Fold Changes Krtap3-1 (keratin associated protein 3-1): 0.7 fold | Fold Changes Ksr (kinase suppressor of ras): 1.8 fold | Fold Changes Lbp (lipopolysaccharide binding protein): 0.6 fold | Fold Changes Ldh2 (lactate dehydrogenase 2, B chain): 1.6 fold | Fold Changes Lpl (lipoprotein lipase): 1.4 fold | Fold Changes Lypla1 (lysophospholipase 1): 4.8 fold | Fold Changes Macf1 (microtubule-actin crosslinking factor 1): 0.5 fold | Fold Changes Mapk9 (mitogen activated protein kinase 9): 2.8 fold | Fold Changes Mapre3 (microtubule-associated protein, RP/EB family, member 3): 0.4 fold | Fold Changes Mapt (microtubule-associated protein tau): 0.5 fold | Fold Changes Matr3 (matrin 3): 0.6 fold | Fold Changes Mnt (max binding protein): 0.6 fold | Fold Changes Mt1 (metallothionein 1): 0.5 fold | Fold Changes Mt2 (metallothionein 2): 0.3 fold | Fold Changes Muc1 (mucin 1, transmembrane): 0.5 fold | Fold Changes Myo5a (myosin Va): 0.1 fold | Fold Changes Ndufb3 (NADH dehydrogenase (ubiquinone) 1 beta subcomplex 3): 1.2 fold | Fold Changes Neurod6 (neurogenic differentiation 6): 0.1 fold | Fold Changes Nnt (nicotinamide nucleotide transhydrogenase): 1.7 fold | Fold Changes Npc1 (Niemann Pick type C1): 0.6 fold | Fold Changes Nras (neuroblastoma ras oncogene): 0.6 fold | Fold Changes Orc4l (origin recognition complex, subunit 4-like (S. cerevisiae)): 0.6 fold | Fold Changes Pcdha12 (protocadherin alpha 12): 0.4 fold | Fold Changes Pcnt2 (pericentrin 2): 1.6 fold | Fold Changes Pdcd4 (programmed cell death 4): 0.6 fold | Fold Changes Pdk4 (pyruvate dehydrogenase kinase, isoenzyme 4): 0.9 fold | Fold Changes Pigr (polymeric immunoglobulin receptor): 0.7 fold | Fold Changes Pkm2 (pyruvate kinase, muscle): 0.5 fold | Fold Changes Plk1 (polo-like kinase 1 (Drosophila)): 0.3 fold | Fold Changes Prp19 (PRP19/PSO4 homolog (S. cerevisiae)): 0.5 fold | Fold Changes Psap (prosaposin): 17.3 fold | Fold Changes Psma3 (proteasome (prosome, macropain) subunit, alpha type 3): 0.7 fold | Fold Changes Psmc1 (protease (prosome, macropain) 26S subunit, ATPase 1): 0.5 fold | Fold Changes Psmd8 (proteasome (prosome, macropain) 26S subunit, non-ATPase, 8): 0.7 fold | Fold Changes Psmd11 (proteasome (prosome, macropain) 26S subunit, non-ATPase, 11): 0.6 fold | Fold Changes Rab2 (RAB2, member RAS oncogene family): 0.9 fold | Fold Changes Rbm17 (RNA binding motif protein 17): 0.7 fold | Fold Changes Retn (resistin): 1.9 fold | Fold Changes Rhoa (ras homolog gene family, member A): 1.4 fold | Fold Changes Rpl30 (ribosomal protein L30): 0.7 fold | Fold Changes Rpp14 (ribonuclease P 14 kDa subunit (human)): 0.7 fold | Fold Changes Rrad (Ras-related associated with diabetes): 0.5 fold | Fold Changes Rtn4 (reticulon 4): 0.9 fold | Fold Changes Rwdd1 (RWD domain containing 1): 0.6 fold | Fold Changes Sara2 (SAR1a gene homolog 2 (S. cerevisiae)): 0.8 fold | Fold Changes Scamp2 (secretory carrier membrane protein 2): 0.7 fold | Fold Changes Sgk (serum/glucocorticoid regulated kinase): 0.8 fold | Fold Changes Siat6 (sialyltransferase 6 (N-acetyllacosaminide alpha 2,3-sialyltransferase)): 2 fold | Fold Changes Skp1a (S-phase kinase-associated protein 1A): 0.5 fold | Fold Changes Slc2a5 (solute carrier family 2 (facilitated glucose transporter), member 5): 0.2 fold | Fold Changes Slc38a2 (solute carrier family 38, member 2): 0.8 fold | Fold Changes Slpi (secretory leukocyte protease inhibitor): 1.1 fold | Fold Changes Snx2 (sorting nexin 2): 1.5 fold | Fold Changes Sorbs1 (sorbin and SH3 domain containing 1): 0.8 fold | Fold Changes Spr (sepiapterin reductase): 1.4 fold | Fold Changes Sri (sorcin): 2.3 fold | Fold Changes St13 (suppression of tumorigenicity 13): 1.5 fold | Fold Changes Stam2 (signal transducing adaptor molecule (SH3 domain and ITAM motif) 2): 4.3 fold | Fold Changes Strap (serine/threonine kinase receptor associated protein): 0.6 fold | Fold Changes Tcfl1 (transcription factor-like 1): 0.7 fold | Fold Changes Tgm3 (transglutaminase 3, E polypeptide): 2.5 fold | Fold Changes Tm4sf3 (transmembrane 4 superfamily member 3): 0.5 fold | Fold Changes Tnpo1 (transportin 1): 0.4 fold | Fold Changes Tnxb (tenascin XB): 1.4 fold | Fold Changes Top1 (topoisomerase (DNA) I): 0.5 fold | Fold Changes Transcribed sequence with strong similarity to protein sp: P49840 (H. sapiens): 0.8 fold | Fold Changes Transcribed sequences: 0.7 fold | Fold Changes Tsta3 (tissue specific transplantation antigen P35B): 0.9 fold | Fold Changes Tubg2 (tubulin, gamma 2): 1.6 fold | Fold Changes Ubb (ubiquitin B): 0.7 fold | Fold Changes Ube2e1 (ubiquitin-conjugating enzyme E2E 1, UBC4/5 homolog (yeast)): 0.7 fold | Fold Changes Upf3b (UPF3 regulator of nonsense transcripts homolog B (yeast)): 0.7 fold | Fold Changes Utrn (utrophin): 1.7 fold | Fold Changes Vps54 (vacuolar protein sorting 54 (yeast)): 0.4 fold | Fold Changes Wars (tryptophanyl-tRNA synthetase): 1.9 fold | Fold Changes Xcl1 (chemokine (C motif) ligand 1): 4.7 fold | Fold Changes Xpo7 (exportin 7): 0.7 fold | Fold Changes Zfp101 (zinc finger protein 101): 0.2 fold | Fold Changes Zfp289 (zinc finger protein 289): 0.6 fold | Fold Changes Rpl10a (ribosomal protein L10A) (Table 1 (down regulation)): 0.4 fold | Fold Changes Itgav (integrin alpha V) (Table 1, first Itgav line): 0.2 fold | Fold Changes Itgav (integrin alpha V) (Table 1, second Itgav line): 0.7 fold | Fold Changes Itgav (integrin alpha V) (Table 2 (up regulation)): 4.6 fold | Fold Changes Rpl10a (ribosomal protein L10A) (Table 2 (up regulation)): 1.2 fold
